Measurements: patent US10519152B2, “Compounds and their use in treating cancer” (AstraZeneca AB, priority 2017, dated 2019)

These molecules were tested against T1, recombinant human Estrogen Receptor alpha ligand binding domain, residues 307-554 (ER alpha-LBD (GST)) (Homo sapiens, UniProt P03372) (assay: ERα binding assay (LanthaScreen TR-FRET competition)). Settings: TR-FRET competition with Fluormone ES2 tracer, 4 hours at room temperature; single experiment or average of two or more.
T1 construct: made in house
T1 sequence (P03372 307-554): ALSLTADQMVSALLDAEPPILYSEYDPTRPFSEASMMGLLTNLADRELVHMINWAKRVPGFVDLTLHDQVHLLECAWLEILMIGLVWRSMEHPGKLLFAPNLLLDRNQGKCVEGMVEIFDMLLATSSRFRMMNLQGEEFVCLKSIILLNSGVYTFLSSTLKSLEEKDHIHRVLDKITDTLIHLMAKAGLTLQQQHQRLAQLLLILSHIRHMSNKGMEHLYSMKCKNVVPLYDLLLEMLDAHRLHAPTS

`Cc1ncsc1-c1ccc([C@H](C)NC(=O)[C@@H]2C[C@@H](O)CN2C(=O)[C@@H](NC(=O)COCCOCCCCCOc2cc(F)c([C@@H]3c4[nH]c5ccccc5c4C[C@@H](C)N3CC(F)(F)F)c(F)c2)C(C)(C)C)cc1` [Example 140, (2S,4R)-1-((S)-2-(2-(2-((5-(3,5-Difluoro-4-((1R,3R)-3-methyl-2-(2,2,2-trifluoroethyl)-2,3,4,9-tetrahydro-1H-pyrido[3,4-b]indol-1-yl)phenoxy)pentyl)oxy)ethoxy)acetamido)-3,3-dimethylbutanoyl)-4-hydroxy-N—((S)-1-(4-(4-methylthiazol-5-yl)phenyl)ethyl)pyrrolidine-2-carboxamide] and `Cc1ncsc1-c1ccc([C@H](C)NC(=O)[C@@H]2C[C@@H](O)CN2C(=O)[C@@H](NC(=O)COCCOCCCCCOc2cc(F)c([C@@H]3c4[nH]c5ccccc5c4C[C@@H](C)N3CC(C)(C)F)c(F)c2)C(C)(C)C)cc1` [Example 156, (2S,4R)-1-((S)-2-(2-(2-((5-(3,5-Difluoro-4-((1R,3R)-2-(2-fluoro-2-methylpropyl)-3-methyl-2,3,4,9-tetrahydro-1H-pyrido[3,4-b]indol-1-yl)phenoxy)pentyl)oxy)ethoxy)acetamido)-3,3-dimethylbutanoyl)-4-hydroxy-N—((S)-1-(4-(4-methylthiazol-5-yl)phenyl)ethyl)pyrrolidine-2-carboxamide] are within 1.5-fold of each other in IC50: 0.5 nM for the first, 0.6 nM for the second.

`Cc1ncsc1-c1ccc(CNC(=O)[C@@H]2C[C@@H](O)CN2C(=O)[C@@H](NC(=O)CCCc2ccc(COc3cc(F)c([C@@H]4c5[nH]c6ccccc6c5C[C@@H](C)N4CC(C)(C)F)c(F)c3)nc2)C(C)(C)C)cc1` [Example 141, (2S,4R)-1-((S)-2-(4-(6-((3,5-Difluoro-4-((1R,3R)-2-(2-fluoro-2-methylpropyl)-3-methyl-2,3,4,9-tetrahydro-1H-pyrido[3,4-b]indol-1-yl)phenoxy)methyl)pyridin-3-yl)butanamido)-3,3-dimethylbutanoyl)-4-hydroxy-N-(4-(4-methylthiazol-5-yl)benzyl)pyrrolidine-2-carboxamide] and `Cc1ncsc1-c1ccc(CNC(=O)[C@@H]2C[C@@H](O)CN2C(=O)[C@@H](NC(=O)COCCc2ccc(COc3cc(F)c([C@@H]4c5[nH]c6ccccc6c5C[C@@H](C)N4CC(C)(C)F)c(F)c3)nc2)C(C)(C)C)cc1` [Example 158, (2S,4R)-1-((S)-2-(2-(2-(6-((3,5-Difluoro-4-((1R,3R)-2-(2-fluoro-2-methylpropyl)-3-methyl-2,3,4,9-tetrahydro-1H-pyrido[3,4-b]indol-1-yl)phenoxy)methyl)pyridin-3-yl)ethoxy)acetamido)-3,3-dimethylbutanoyl)-4-hydroxy-N-(4-(4-methylthiazol-5-yl)benzyl)pyrrolidine-2-carboxamide] are within 1.5-fold of each other in IC50: 1.2 nM for the first, 0.8 nM for the second.

`Cc1ncsc1-c1ccc(CNC(=O)[C@@H]2C[C@@H](O)CN2C(=O)[C@@H](NC(=O)COCCCCC(=O)NCCOc2cc(F)c([C@@H]3c4[nH]c5ccccc5c4C[C@@H](C)N3CC(C)(C)F)c(F)c2)C(C)(C)C)cc1` [Example 142, (2S,4R)-1-((S)-2-(2-((5-((2-(3,5-Difluoro-4-((1R,3R)-2-(2-fluoro-2-methylpropyl)-3-methyl-2,3,4,9-tetrahydro-1H-pyrido[3,4-b]indol-1-yl)phenoxy)ethyl)amino)-5-oxopentyl)oxy)acetamido)-3,3-dimethylbutanoyl)-4-hydroxy-N-(4-(4-methylthiazol-5-yl)benzyl)pyrrolidine-2-carboxamide] and `Cc1ncsc1-c1ccc(CNC(=O)[C@@H]2C[C@@H](O)CN2C(=O)[C@@H](NC(=O)COCCCCC(=O)N(C)CCOc2cc(F)c([C@@H]3c4[nH]c5ccccc5c4C[C@@H](C)N3CC(C)(C)F)c(F)c2)C(C)(C)C)cc1` [Example 143, (2S,4R)-1-((S)-2-(2-((5-((2-(3,5-Difluoro-4-((1R,3R)-2-(2-fluoro-2-methylpropyl)-3-methyl-2,3,4,9-tetrahydro-1H-pyrido[3,4-b]indol-1-yl)phenoxy)ethyl)(methyl)amino)-5-oxopentyl)oxy)acetamido)-3,3-dimethylbutanoyl)-4-hydroxy-N-(4-(4-methylthiazol-5-yl)benzyl)pyrrolidine-2-carboxamide] are the same in IC50: 1.1 nM for the first, 1.1 nM for the second.

Going from `Cc1ncsc1-c1ccc(CNC(=O)[C@@H]2C[C@@H](O)CN2C(=O)[C@@H](NC(=O)COCc2ccc(C(=O)Nc3cc(F)c([C@@H]4c5[nH]c6ccccc6c5C[C@@H](C)N4CC(C)(C)F)c(F)c3)nc2)C(C)(C)C)cc1` [Example 144, N-(3,5-Difluoro-4-((1R,3R)-2-(2-fluoro-2-methylpropyl)-3-methyl-2,3,4,9-tetrahydro-1H-pyrido[3,4-b]indol-1-yl)phenyl)-5-((2-(((S)-1-((2S,4R)-4-hydroxy-2-((4-(4-methylthiazol-5-yl)benzyl)carbamoyl)pyrrolidin-1-yl)-3,3-dimethyl-1-oxobutan-2-yl)amino)-2-oxoethoxy)methyl)picolinamide] to `Cc1ncsc1-c1ccc(CNC(=O)[C@@H]2C[C@@H](O)CN2C(=O)[C@@H](NC(=O)CNCc2ccc(COc3cc(F)c([C@@H]4c5[nH]c6ccccc6c5C[C@@H](C)N4CC(C)(C)F)c(F)c3)nc2)C(C)(C)C)cc1` [Example 146], the IC50 falls from 1.3 nM to 0.8 nM (1.6-fold).

First: Cc1ncsc1-c1ccc(CNC(=O)[C@@H]2C[C@@H](O)CN2C(=O)[C@@H](NC(=O)CNCCCCCCCCOc2cc(F)c([C@@H]3c4[nH]c5ccccc5c4C[C@@H](C)N3CC(C)(C)F)c(F)c2)C(C)(C)C)cc1 [Example 147, (2S,4R)-1-((S)-2-(2-((8-(3,5-Difluoro-4-((1R,3R)-2-(2-fluoro-2-methylpropyl)-3-methyl-2,3,4,9-tetrahydro-1H-pyrido[3,4-b]indol-1-yl)phenoxy)octyl)amino)acetamido)-3,3-dimethylbutanoyl)-4-hydroxy-N-(4-(4-methylthiazol-5-yl)benzyl)pyrrolidine-2-carboxamide]
Second: Cc1ncsc1-c1ccc([C@H](C)NC(=O)[C@@H]2C[C@@H](O)CN2C(=O)[C@@H](NC(=O)COCCCCOCCCOc2cc(F)c([C@@H]3c4[nH]c5ccccc5c4C[C@@H](C)N3CC(C)(C)F)c(F)c2)C(C)(C)C)cc1 [Example 154, (2S,4R)-1-((S)-2-(2-(4-(3-(3,5-Difluoro-4-((1R,3R)-2-(2-fluoro-2-methylpropyl)-3-methyl-2,3,4,9-tetrahydro-1H-pyrido[3,4-b]indol-1-yl)phenoxy)propoxy)butoxy)acetamido)-3,3-dimethylbutanoyl)-4-hydroxy-N—((S)-1-(4-(4-methylthiazol-5-yl)phenyl)ethyl)pyrrolidine-2-carboxamide]
The IC50 of the first is 2.5-fold higher: 1 nM for the first, 0.4 nM for the second. The second is the more potent here.

First: Cc1ncsc1-c1ccc([C@H](C)NC(=O)[C@@H]2C[C@@H](O)CN2C(=O)[C@@H](NC(=O)COCCCOCCCOc2cc(F)c([C@@H]3c4[nH]c5ccccc5c4C[C@@H](C)N3CC(C)(C)F)c(F)c2)C(C)(C)C)cc1 [Example 152, (2S,4R)-1-((S)-2-(2-(3-(3-(3,5-Difluoro-4-((1R,3R)-2-(2-fluoro-2-methylpropyl)-3-methyl-2,3,4,9-tetrahydro-1H-pyrido[3,4-b]indol-1-yl)phenoxy)propoxy)propoxy)acetamido)-3,3-dimethylbutanoyl)-4-hydroxy-N—((S)-1-(4-(4-methylthiazol-5-yl)phenyl)ethyl)pyrrolidine-2-carboxamide]
Second: Cc1ncsc1-c1ccc([C@H](C)NC(=O)[C@@H]2C[C@@H](O)CN2C(=O)[C@@H](NC(=O)COCCOCCCCOc2cc(F)c([C@@H]3c4[nH]c5ccccc5c4C[C@@H](C)N3CC(C)(C)F)c(F)c2)C(C)(C)C)cc1 [Example 153, (2S,4R)-1-((S)-2-(2-(2-(4-(3,5-Difluoro-4-((1R,3R)-2-(2-fluoro-2-methylpropyl)-3-methyl-2,3,4,9-tetrahydro-1H-pyrido[3,4-b]indol-1-yl)phenoxy)butoxy)ethoxy)acetamido)-3,3-dimethylbutanoyl)-4-hydroxy-N—((S)-1-(4-(4-methylthiazol-5-yl)phenyl)ethyl)pyrrolidine-2-carboxamide]
The IC50 of the first is 1.7-fold higher: 0.5 nM for the first, 0.3 nM for the second. The second is the more potent here.

`Cc1ncsc1-c1ccc([C@H](C)NC(=O)[C@@H]2C[C@@H](O)CN2C(=O)[C@@H](NC(=O)COCCCCCOCCOc2cc(F)c([C@@H]3c4[nH]c5ccccc5c4C[C@@H](C)N3CC(C)(C)F)c(F)c2)C(C)(C)C)cc1` [Example 157, (2S,4R)-1-((S)-2-(2-((5-(2-(3,5-Difluoro-4-((1R,3R)-2-(2-fluoro-2-methylpropyl)-3-methyl-2,3,4,9-tetrahydro-1H-pyrido[3,4-b]indol-1-yl)phenoxy)ethoxy)pentyl)oxy)acetamido)-3,3-dimethylbutanoyl)-4-hydroxy-N—((S)-1-(4-(4-methylthiazol-5-yl)phenyl)ethyl)pyrrolidine-2-carboxamide] and `Cc1ncsc1-c1ccc([C@H](C)NC(=O)[C@@H]2C[C@@H](O)CN2C(=O)[C@@H](NC(=O)COCCc2ccc(COc3cc(F)c([C@@H]4c5[nH]c6ccccc6c5C[C@@H](C)N4CC(C)(C)F)c(F)c3)nc2)C(C)(C)C)cc1` [Example 159, (2S,4R)-1-((S)-2-(2-(2-(6-((3,5-Difluoro-4-((1R,3R)-2-(2-fluoro-2-methylpropyl)-3-methyl-2,3,4,9-tetrahydro-1H-pyrido[3,4-b]indol-1-yl)phenoxy)methyl)pyridin-3-yl)ethoxy)acetamido)-3,3-dimethylbutanoyl)-4-hydroxy-N—((S)-1-(4-(4-methylthiazol-5-yl)phenyl)ethyl)pyrrolidine-2-carboxamide] are within 1.5-fold of each other in IC50: 0.8 nM for the first, 0.7 nM for the second.
